Experimental data: US10213449B2, “Compositions and methods for treating medulloblastoma” (The Board of Trustees of the Leland Stanford Junior …, priority 2016, dated 2019)
“Also recorded” adds a separate entry of the source.

Assays:
[1] = test system: Hh signaling in NIH 3T3 cells exposed to Shh; assay: RT-qPCR of Hh target transcripts in Shh-stimulated NIH 3T3 cells; assay type: cell-based, mouse
Experimental: NIH3T3s or SUFU−/− MEFs were plated in 6 well plates at 400,000 cells/well in 10% FBS media constituted of DMEM (Invitrogen11960-069) supplemented with 10% FBS (Hyclone Labs SH30070.02), pen/strep (Life Technologies 15140-122), sodium pyruvate (Invitrogen 11360-070) and glutamax (Invitrogen 35050-061). Cells were then starved in 0.5% FBS for 24 h prior to treatment with 25% ShhN conditioned media in 0.5% FBS+/− drug treatment. GliΔN were treated 48 h post transfection. Unless otherwise stated, all treatments were performed for 6 h. Cell lysis and RNA extraction was performed using Qiashredder homogenizers (Qiagen 79654) and RNEasy mini kits (qiagen 74104) as per manufacturer's instructions. RNA was quantified on a nanodrop spectrophotometer (nanoddrop technologies ND-2000C). Transcript quantification was performed using a TaqMan RNA-to-Ct 1-Step Kit (Life technologies, 4392656) and the Applied Biosystems 7500 RT-PCR system as per the manufacturer's instructions. All primers were commercially available TaqMan® Gene Expression Assay probes purchased from Life Technologies (csnk2a1: Mm00786779_s1, csnk2a2: Mm01243455_m1, csnk2b: Mm00487216_m1, Gli1: Mm00494654_m1, Gli2: Mm.273292, Ccnd1: Mm.273049, Ptch: Mm00436047_m1).

[2] = test system: Gli2 binding at Gli target genes in GNPs; assay: H3K27ac and Gli2 Chipseq in GNPs purified from TBB-injected P7 mice; assay type: in vivo, mouse; conditions: two injections of TBB (30 mg/kg) over 18 h
Experimental: Brd4 occupancy at both Gli1 and Gli2 promoters was blocked by the addition of TBB (FIG. 3e). Given that Brd4's primary role as a reader of H3K27ac histone modifications, whether the effect of TBB on Gli target genes correlated with H3K27ac in GNP on a genome-wide scale was next examined. GNPs were purified from P7 mice following two injections of TBB over an 18 h period. Chipseq using H3K27ac and Gli2 antibodies were performed and Gli target genes were binned into either ‘high’ or low H3K27ac′ groups. […] For example, Gli1 had low H3K27ac in GNPs but high H3K27ac in NIH 3T3's. In contrast, Gli2 and Ptch both had high H3K27ac marks in both GNPs and NIH 3T3's.
Wildtype CD1-Elite (Charles River strain 482) P7 mice were randomized to control or treatment groups then given two injections of DMSO (control) or TBB (30 mg/kg) q12h×2. Mice were sacrificed and GNPs were isolated as described in “GNP isolation”. Chomatin immunoprecipitation was performed as previously described. GNPs were cross-linked in 1% formaldehyde for 10 minutes at RT then fixation was stopped by adding 2.5M glycine for 10 minutes. […] ChIP and input DNA was quantified using Qubit DS DNA HS assay as per manufacturer's protocol (ThermoFisher Q32851). […] Library was quantified via Qubit DS DNA HS assay and library quality was determined using an Agilent 2100 Bioanalyzer. […]

[3] = test system: Ptch+/−; Trp53−/− MB flank allografts; assay: Flank allograft study, Ptch+/−; Trp53−/− MB; assay type: in vivo, mouse; conditions: TBB 30 mg/kg IP BID; effect as early as 3 days after initiating treatment; vs vehicle control
Experimental: In vivo efficacy studies were performed in accordance with protocols approved by the Institutional Animal Care and Use Committee at Stanford University. SmoWT-MB and Smo[…]-MB cells isolated from either parental SmoWT or Smo[…] mouse Ptch^+/-; p53^-/- MB hind-flank allografts were kindly provided by Charles Rudin (Memorial Sloan-Kettering Cancer Center). Ptch+/-; Tpr53-/-, or, Ptch+/-; Tpr53-/-; Smo[…] MB cells were mixed 1:1 with matrigel and 10^7 cells were injected into both flanks of a Nu/Nu mouse. Once tumors reached 225-275 mm^3, mice were randomized to treatment vs. control groups. Treatment groups received 30 mg/kg IP BID of TBB (reconstituted in DMSO at 50 ug/uL), or 37.5 mg/kg IP BID of GDC-0449 (reconstituted in DMSO at 62.5 ug/uL). Control mice were treated with an equivalent volume of DMSO. Corn oil was used in all groups to a total volume of 180 uL/injection and all doses were given with a 28 g insulin syringe. Tumors were measured and mice were weighed daily. Once tumors reached 1.5 cm^2 or met institutional euthanasia criteria, mice were sacrificed and tumors were harvested. Growth curves were generated using GraphPad Prism and significance was measured by two-way ANOVA.

[4] = NIH 3T3's following Hh stimulation

For `Brc1c(Br)c(Br)c2[nH]nnc2c1Br` [TBB, 4,5,6,7-tetrabromo-2H-benzotriazole], the Gli2 transcript levels [1, 4] was “effective at decreasing”, the Ptch transcript levels [1, 4] was “effective at decreasing” and the “Gli1 mRNA levels” value ([1]; SHH ligand-induced NIH 3T3 cells, as early as 4 h post exposure) was “inhibited; also recorded: dramatic decrease; also recorded: loss of Gli1 induction”. The “Gli binding at 'high' H3K27ac marked Gli target genes compared to low H3K27ac marked genes” value [2] was “statistically significant decrease” and the “MB flank allograft growth” value [3] was “significant inhibition; also recorded: decreased growth”.
